Source: the NIST ThermoML archive (doi:10.1021/acs.jced.5b00367)
Values joined by “and” are separate entries in the source; they are usually repeats but may differ in a detail not shown here. Identical values can stand only once. Numbers after ± are expanded uncertainties.

Assay: wn = mass fraction of the nth substance listed
Conditions: 101 kPa, Liquid, Alternating current cell with electrodes, w1 = 0.01

CCCCCCCCCCCC[N+](CC)(CC)CCCCCCCCCCCC.[Br-] [didodecyldiethylammonium bromide] + O
Conditions	electrical conductivity
279.25 K	0.00329 ± 0.0013 S/m
279.35 K	0.00328 ± 0.0013 S/m
279.45 K	0.00328 ± 0.0013 S/m
279.55 K	0.00328 ± 0.0013 S/m
279.65 K	0.00329 ± 0.0013 S/m
279.75 K	0.00331 S/m and 0.00332 S/m
279.85 K	0.00335 ± 0.0013 S/m
279.95 K	0.00338 S/m and 0.00343 S/m
280.15 K	0.00345 ± 0.0014 S/m
280.25 K	0.00348 ± 0.0014 S/m
280.35 K	0.00355 ± 0.0014 S/m
280.45 K	0.00357 ± 0.0014 S/m
280.55 K	0.00359 ± 0.0014 S/m
280.65 K	0.0036 ± 0.0014 S/m
280.75 K	0.00364 ± 0.0015 S/m
280.85 K	0.0037 S/m and 0.00371 S/m
280.95 K	0.00378 ± 0.0015 S/m
281.05 K	0.00381 ± 0.0015 S/m
281.15 K	0.00381 ± 0.0015 S/m
281.25 K	0.00371 ± 0.0015 S/m
281.35 K	0.00377 ± 0.0015 S/m
281.45 K	0.00374 ± 0.0015 S/m
281.55 K	0.00378 ± 0.0015 S/m
281.65 K	0.00378 ± 0.0015 S/m
281.85 K	0.00378 ± 0.0015 S/m
281.95 K	0.00374 ± 0.0015 S/m
282.05 K	0.00366 ± 0.0015 S/m
282.25 K	0.00373 ± 0.0015 S/m
282.45 K	0.00366 ± 0.0015 S/m
282.65 K	0.00365 ± 0.0015 S/m
282.75 K	0.00364 ± 0.0015 S/m
282.85 K	0.00356 ± 0.0014 S/m
283.05 K	0.00356 ± 0.0014 S/m
283.15 K	0.0036 ± 0.0014 S/m
283.35 K	0.0034 ± 0.0014 S/m
283.45 K	0.0036 ± 0.0014 S/m
283.55 K	0.00354 ± 0.0014 S/m
283.75 K	0.0035 ± 0.0014 S/m
283.85 K	0.00351 ± 0.0014 S/m
283.95 K	0.00346 ± 0.0014 S/m
284.05 K	0.0035 ± 0.0014 S/m
284.25 K	0.00354 ± 0.0014 S/m
284.35 K	0.00354 ± 0.0014 S/m
284.55 K	0.0034 ± 0.0014 S/m
284.65 K	0.00355 ± 0.0014 S/m
284.75 K	0.0035 ± 0.0014 S/m
284.85 K	0.00345 ± 0.0014 S/m
284.95 K	0.00352 ± 0.0014 S/m
285.05 K	0.00342 ± 0.0014 S/m
285.15 K	0.00344 ± 0.0014 S/m
285.25 K	0.0035 ± 0.0014 S/m
285.35 K	0.00344 ± 0.0014 S/m
285.45 K	0.00344 ± 0.0014 S/m
285.55 K	0.00342 ± 0.0014 S/m
285.65 K	0.00343 ± 0.0014 S/m
285.75 K	0.0034 ± 0.0014 S/m
285.85 K	0.00342 ± 0.0014 S/m
285.95 K	0.00343 ± 0.0014 S/m
286.05 K	0.00348 ± 0.0014 S/m
286.15 K	0.0034 ± 0.0014 S/m
286.25 K	0.00342 ± 0.0014 S/m
286.35 K	0.00341 ± 0.0014 S/m
286.45 K	0.00343 ± 0.0014 S/m
286.55 K	0.00339 ± 0.0014 S/m
286.65 K	0.0034 ± 0.0014 S/m
286.75 K	0.00347 ± 0.0014 S/m
286.95 K	0.00347 ± 0.0014 S/m
287.05 K	0.00347 ± 0.0014 S/m
287.15 K	0.00344 ± 0.0014 S/m
287.25 K	0.00341 ± 0.0014 S/m
287.35 K	0.00345 ± 0.0014 S/m
287.45 K	0.00347 ± 0.0014 S/m
287.55 K	0.00345 ± 0.0014 S/m
287.65 K	0.00341 ± 0.0014 S/m
287.75 K	0.00342 ± 0.0014 S/m
287.85 K	0.00343 ± 0.0014 S/m
287.95 K	0.00348 ± 0.0014 S/m
288.05 K	0.00344 ± 0.0014 S/m
288.15 K	0.00345 ± 0.0014 S/m
288.25 K	0.00342 ± 0.0014 S/m
288.45 K	0.0035 ± 0.0014 S/m
288.55 K	0.00357 ± 0.0014 S/m
288.65 K	0.00345 ± 0.0014 S/m
288.75 K	0.0035 ± 0.0014 S/m
288.85 K	0.00345 ± 0.0014 S/m
288.95 K	0.00346 ± 0.0014 S/m
289.05 K	0.00344 ± 0.0014 S/m
289.15 K	0.00349 ± 0.0014 S/m
289.25 K	0.00346 ± 0.0014 S/m
289.35 K	0.00352 ± 0.0014 S/m
289.45 K	0.00346 ± 0.0014 S/m
289.55 K	0.00347 ± 0.0014 S/m
289.65 K	0.00352 ± 0.0014 S/m
289.75 K	0.00352 ± 0.0014 S/m
289.85 K	0.00352 ± 0.0014 S/m
289.95 K	0.00351 ± 0.0014 S/m
290.05 K	0.00357 ± 0.0014 S/m
290.15 K	0.00348 ± 0.0014 S/m
290.25 K	0.0035 ± 0.0014 S/m
290.35 K	0.00347 ± 0.0014 S/m
290.55 K	0.00355 ± 0.0014 S/m
290.65 K	0.00364 ± 0.0015 S/m
290.75 K	0.00356 ± 0.0014 S/m
290.85 K	0.00359 ± 0.0014 S/m
290.95 K	0.0036 ± 0.0014 S/m
291.05 K	0.00358 ± 0.0014 S/m
291.15 K	0.00361 ± 0.0014 S/m
291.25 K	0.00357 ± 0.0014 S/m
291.35 K	0.00362 ± 0.0014 S/m
291.45 K	0.0036 ± 0.0014 S/m
291.55 K	0.00366 ± 0.0015 S/m
291.65 K	0.00359 ± 0.0014 S/m
291.75 K	0.0036 ± 0.0014 S/m
